The values below come from ChEMBL document CHEMBL1687871, “Phragmalin- and mexicanolide-type limonoids from the leaves of Trichilia connaroides” (J Nat Prod, 2011).

pIC50: −log10 of the molar value.

This test relates to HL-60. Kind of test: Cytotoxicity against human HL60 cells. The class given is functional, cell-based.

With `C/C=C(\C)C(=O)O[C@H]1[C@@]2(C)C[C@@]3(OC(C)=O)[C@](C)([C@H]4CC[C@]5(C)C(=C4[C@H](OC(C)=O)[C@@]13OC(C)=O)[C@@H](OC(C)=O)C(=O)O[C@H]5c1ccoc1)[C@H]2CC(=O)OC` [15-ACETYLTRICHAGMALIN E], the negative logarithm of the IC50 (pIC50) was 4.68.

Compound `C/C=C(\C)C(=O)O[C@H]1[C@@]2(C)C[C@@]3(O)[C@](C)([C@H]4CC[C@]5(C)C(=C4[C@H](OC(C)=O)[C@@]13O)[C@@H](OC(C)=O)C(=O)O[C@H]5c1ccoc1)[C@H]2CC(=O)OC` [TRICHAGMALIN D] had a pIC50 of 4.77.

The term pIC50 denotes the IC50 on a negative log10 scale, so that one unit is a factor of ten.
